Measurements: US10702592B2, “Peptides and combination of peptides for use in immunotherapy against NHL and other cancers” (Immatics Biotechnologies GmbH, priority 2016, dated 2020)

Key:
[1] = tested on: CD8+ T cells; assay: In vitro T-cell priming immunogenicity assay (aAPC with pMHC and anti-CD28, multimer staining); assay type: cell-based, human; conditions: for Wells positive [%]: HLA-A*02 restricted peptides, percentage of positive wells and donors (among evaluable); for in vitro immunogenicity, wells: CD8+ T cells of healthy HLA-A*02 donors, three stimulation cycles, multimer readout
Excerpt: In order to obtain information regarding the immunogenicity of the TUMAPs of the present invention, the inventors performed investigations using an in vitro T-cell priming assay based on repeated stimulations of CD8+ T cells with artificial antigen presenting cells (aAPCs) loaded with peptide/MHC complexes and anti-CD28 antibody.
In order to perform in vitro stimulations by artificial antigen presenting cells loaded with peptide-MHC complex (pMHC) and anti-CD28 antibody, the inventors first isolated CD8+ T cells from fresh HLA-A*02 leukapheresis products via positive selection using CD8 microbeads (Miltenyi Biotec, Bergisch-Gladbach, Germany) of healthy donors obtained from the University clinics Mannheim, Germany, after informed consent.
PBMCs and isolated CD8+ lymphocytes were incubated in T-cell medium (TCM) until use consisting of RPMI-Glutamax (Invitrogen, Karlsruhe, Germany) supplemented with 10% heat inactivated human AB serum (PAN-Biotech, Aidenbach, Germany), 100 U/ml Penicillin/100 μg/ml Streptomycin (Cambrex, Cologne, Germany), 1 mM sodium pyruvate (CC Pro, Oberdorla, Germany), 20 μg/ml Gentamycin (Cambrex). 2.5 ng/ml IL-7 (PromoCell, Heidelberg, Germany) and 10 U/ml IL-2 (Novartis Pharma, Nurnberg, Germany) were also added to the TCM at this step.
Generation of pMHC/anti-CD28 coated beads, T-cell stimulations and readout was performed in a highly defined in vitro system using four different pMHC molecules per stimulation condition and 8 different pMHC molecules per readout condition.
The purified co-stimulatory mouse IgG2a anti human CD28 Ab 9.3 (Jung et al., 1987) was chemically biotinylated using Sulfo-N-hydroxysuccinimidobiotin as recommended by the manufacturer (Perbio, Bonn, Germany). Beads used were 5.6 μm diameter streptavidin coated polystyrene particles (Bangs Laboratories, Illinois, USA).
800.000 beads/200 μl were coated in 96-well plates in the presence of 4×12.5 ng different biotin-pMHC, washed and 600 ng biotin anti-CD28 were added subsequently in a volume of 200 μl. Stimulations were initiated in 96-well plates by co-incubating 1×10^6 CD8+ T cells with 2×10^5 washed coated beads in 200 μl TCM supplemented with 5 ng/ml IL-12 (PromoCell) for 3 days at 37° C. Half of the medium was then exchanged by fresh TCM supplemented with 80 U/ml IL-2 and incubating was continued for 4 days at 37° C. This stimulation cycle was performed for a total of three times. For the pMHC multimer readout using 8 different pMHC molecules per condition, a two-dimensional combinatorial coding approach was used as previously described (Andersen et al., 2012) with minor modifications encompassing coupling to 5 different fluorochromes. Finally, multimeric analyses were performed by staining the cells with Live/dead near IR dye (Invitrogen, Karlsruhe, Germany), CD8-FITC antibody clone SK1 (BD, Heidelberg, Germany) and fluorescent pMHC multimers. For analysis, a BD LSRII SORP cytometer equipped with appropriate lasers and filters was used. Peptide specific cells were calculated as percentage of total CD8+ cells. Evaluation of multimeric analysis was done using the FlowJo software (Tree Star, Oregon, USA). In vitro priming of specific multimer+CD8+ lymphocytes was detected by comparing to negative control stimulations.

[2] = target: HLA-A*02:01 (Homo sapiens, UniProt P04439, D140Y/D185E/D98H/E176V/E277Q/G131W/G231S/I119V/I121R/I166T/I218V/L300P/L318F/N151K/N90K/P208A/P217A/Q86G/Q94H/R138H/R169H/T345S); assay: MHC binding assay (UV-ligand exchange, beta2m ELISA); conditions: binding to HLA-A*02:01, UV-ligand exchange
Outline: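 Binding capacity is expressed as the yield of UV-mediated ligand exchange, reflecting how well each peptide stabilizes peptide-receptive MHC. Stabilized complexes are read out by anti-β2m HRP ELISA (450 nm) after streptavidin capture, with refolded MLA-001 monomer standards for quantitation.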

| Substance | Peptide exchange (MHC class I binding score, peptide exchange yield) [2] | Wells positive [%] [1] | in vitro immunogenicity, wells [1] |
| --- | --- | --- | --- |
| 24 (AVLGFSFRL; listed as Homo sapiens) [compound 24] | “+++” (≥50 = +++) | “++++” (≥70% = ++++) | – |
| 36 (VILDIPLLFET; listed as Homo sapiens) [compound 36] | “+++” (≥50 = +++) | “++” (20% - 49% = ++) | – |
| 5 (VLQGLTFTL; listed as Homo sapiens) [compound 5] | “+++” (≥50 = +++) | “+++” (50% - 69% = +++) | – |
| 29 (ILSDVTQGL; listed as Homo sapiens) [compound 29] | “+++” (≥50 = +++) | “+” (<20% = +) | – |
| 26 (FLGSFIDHV; listed as Homo sapiens) [compound 26] | “+++” (≥50 = +++) | “+” (<20% = +) | – |
| 7 (NLLGMIFSM; listed as Homo sapiens) [compound 7] | “++++” (≥75% = ++++) | “++++” (≥70% = ++++) | – |
| 17 (VIIPLLSSV; listed as Homo sapiens) [compound 17] | “+++” (≥50 = +++) | “++” (20% - 49% = ++) | – |
| 323 (ILVDWLVQV; listed as Homo sapiens) [compound 323] | – | – | ++ (20% - 49% = ++) |
| 1 (LLSGQLPTI; listed as Homo sapiens) [compound 1] | “+++” (≥50 = +++) | “+++” (50% - 69% = +++) | – |
| 324 (LLYDAVHIV; listed as Homo sapiens) [compound 324] | – | – | ++ (20% - 49% = ++) |
| 33 (LLANIVPIAMLV; listed as Homo sapiens) [compound 33] | “++++” (≥75% = ++++) | “+” (<20% = +) | – |
| 37 (VLGNALEGV; listed as Homo sapiens) [compound 37] | “+++” (≥50 = +++) | “+” (<20% = +) | – |
| 327 (MLFGHPLLVSV; listed as Homo sapiens) [compound 327] | – | – | ++ (20% - 49% = ++) |
| 13 (HLVPASWKL; listed as Homo sapiens) [compound 13] | “+++” (≥50 = +++) | “+++” (50% - 69% = +++) | – |
| 42 (YLQDLVERA; listed as Homo sapiens) [compound 42] | “++++” (≥75% = ++++) | “+++” (50% - 69% = +++) | – |
| 40 (FLNSVIVDL; listed as Homo sapiens) [compound 40] | “++++” (≥75% = ++++) | “+++” (50% - 69% = +++) | – |
| 328 (ILFPDIIARA; listed as Homo sapiens) [compound 328] | – | – | ++++ (≥70% = ++++) |
| 41 (ILASIFETV; listed as Homo sapiens) [compound 41] | “++++” (≥75% = ++++) | “+++” (50% - 69% = +++) | – |
| 326 (KLTDVGIATL; listed as Homo sapiens) [compound 326] | – | – | ++++ (≥70% = ++++) |
| 322 (TLTNIIHNL; listed as Homo sapiens) [compound 322] | – | – | ++ (20% - 49% = ++) |
| 325 (FLFVDPELV; listed as Homo sapiens) [compound 325] | – | – | +++ (50% - 69% = +++) |
| 320 (LLWGNLPEI; listed as Homo sapiens) [compound 320] | – | – | ++ (20% - 49% = ++) |
| 321 (KLLAVIHEL; listed as Homo sapiens) [compound 321] | – | – | ++ (20% - 49% = ++) |
| 319 (SLYKGLLSV; listed as Homo sapiens) [compound 319] | – | – | ++ (20% - 49% = ++) |

More lines, main results first:

| Peptide exchange (MHC class I binding score, peptide exchange yield) [2] | Substance | Wells positive [%] [1] | in vitro immunogenicity, wells [1] |
| --- | --- | --- | --- |
| “++++” (≥75% = ++++) | 253 (YSDDDVPSV; listed as Homo sapiens) [compound 253] | “+++” (50% - 69% = +++) | – |
| “+++” (≥50 = +++) | 46 (FLVEEIFQT; listed as Homo sapiens) [compound 46] | “+” (<20% = +) | – |
| “++++” (≥75% = ++++) | 57 (LQIGDFVSV; listed as Homo sapiens) [compound 57] | “++++” (≥70% = ++++) | – |
| “+++” (≥50 = +++) | 258 (RIYPFLLMV; listed as Homo sapiens) [compound 258] | “++++” (≥70% = ++++) | – |
| “++++” (≥75% = ++++) | 52 (VLLEDVDAAFL; listed as Homo sapiens) [compound 52] | “+” (<20% = +) | – |
| “++++” (≥75% = ++++) | 261 (FLPETRIMTSV; listed as Homo sapiens) [compound 261] | “+” (<20% = +) | – |
| “+++” (≥50 = +++) | 44 (FIIEEQSFL; listed as Homo sapiens) [compound 44] | “+” (<20% = +) | – |
| “++++” (≥75% = ++++) | 61 (SLLNKDLSL; listed as Homo sapiens) [compound 61] | “+” (<20% = +) | – |
| “+++” (≥50 = +++) | 60 (SLLIDVITV; listed as Homo sapiens) [compound 60] | “+++” (50% - 69% = +++) | – |
| “++++” (≥75% = ++++) | 74 (SLDLRPLEV; listed as Homo sapiens) [compound 74] | “++” (20% - 49% = ++) | – |
| “++++” (≥75% = ++++) | 66 (KLAPIPVEL; listed as Homo sapiens) [compound 66] | “++” (20% - 49% = ++) | – |
| “++++” (≥75% = ++++) | 51 (SLLGNSPVL; listed as Homo sapiens) [compound 51] | “+++” (50% - 69% = +++) | – |
| “+++” (≥50 = +++) | 73 (YLGEEYPEV; listed as Homo sapiens) [compound 73] | “+” (<20% = +) | – |
| “+++” (≥50 = +++) | 256 (ALQETPPQV; listed as Homo sapiens) [compound 256] | “+” (<20% = +) | – |
| “+++” (≥50 = +++) | 86 (GLATIRAYL; listed as Homo sapiens) [compound 86] | – | – |
| “++” (≥20% = ++) | 234 (NLQRTVVTV; listed as Homo sapiens) [compound 234] | – | – |
| “++++” (≥75% = ++++) | 294 (KLYGPEGLELV; listed as Homo sapiens) [compound 294] | – | – |
| “++” (≥20% = ++) | 192 (GMAAEVPKV; listed as Homo sapiens) [compound 192] | – | – |
| “++” (≥20% = ++) | 152 (KIMYTLVSV; listed as Homo sapiens) [compound 152] | – | – |
